Experimental data published in patent publication US20240174662A1, “SMALL MOLECULE INHIBITORS OF SALT INDUCIBLE KINASES” (Janssen Biotech, Inc., priority 2021, published 2024).

What follows are compounds tested against SIK2 (Homo sapiens (Human), UniProt Q9H0K1) (assay: SIK2 Enzymatic Assay Version 2 (High ATP)). Conditions: 3 mM ATP and 200 μM HDAC5tide final, ADP-Glo Max luminescence.
Type: biochemical
Outline: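 Luminescent ADP-Glo Max read-out: depletion reagent 2 h, then detection reagent 1 h. Before the reaction, compounds were incubated 30 min with enzyme added at 6 nM (twice final concentration), with all steps at room temperature.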

Chain of SIK2 (Q9H0K1 whole entry, species assumed): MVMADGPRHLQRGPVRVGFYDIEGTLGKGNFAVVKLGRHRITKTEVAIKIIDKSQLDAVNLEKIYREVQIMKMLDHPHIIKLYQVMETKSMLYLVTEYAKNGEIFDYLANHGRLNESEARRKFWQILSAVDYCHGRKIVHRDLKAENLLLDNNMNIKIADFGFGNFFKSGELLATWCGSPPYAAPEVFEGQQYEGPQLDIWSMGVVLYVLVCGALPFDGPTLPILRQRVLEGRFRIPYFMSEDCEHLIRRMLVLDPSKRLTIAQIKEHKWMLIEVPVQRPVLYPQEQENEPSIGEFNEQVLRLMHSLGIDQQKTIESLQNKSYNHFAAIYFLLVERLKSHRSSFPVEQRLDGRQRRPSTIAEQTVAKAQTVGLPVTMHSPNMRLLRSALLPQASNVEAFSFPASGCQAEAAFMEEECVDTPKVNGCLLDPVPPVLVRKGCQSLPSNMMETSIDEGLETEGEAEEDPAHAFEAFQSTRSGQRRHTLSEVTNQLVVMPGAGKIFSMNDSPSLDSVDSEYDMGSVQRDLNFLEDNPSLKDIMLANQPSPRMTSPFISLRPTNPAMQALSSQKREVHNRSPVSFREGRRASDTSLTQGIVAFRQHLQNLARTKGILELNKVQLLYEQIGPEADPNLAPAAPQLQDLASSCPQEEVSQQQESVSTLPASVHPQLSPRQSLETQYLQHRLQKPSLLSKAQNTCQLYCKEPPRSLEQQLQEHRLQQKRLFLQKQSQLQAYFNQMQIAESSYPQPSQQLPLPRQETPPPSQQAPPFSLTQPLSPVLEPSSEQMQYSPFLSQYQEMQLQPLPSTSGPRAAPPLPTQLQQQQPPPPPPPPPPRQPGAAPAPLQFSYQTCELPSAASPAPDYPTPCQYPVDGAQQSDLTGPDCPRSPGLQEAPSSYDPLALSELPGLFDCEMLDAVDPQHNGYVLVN

| Compound | IC50 |
| --- | --- |
| Cn1ncc(COC2CCNCC2)c1-c1ccn2nc(NC(=O)C3CC3)cc2c1 [Example 463, N-[5-[2-methyl-4-(4-piperidyloxymethyl)pyrazol-3-yl]pyrazolo[1,5-a]pyridin-2-yl]cyclopropanecarboxamide] | 74.5 nM |
| Cc1onc(O[C@@H]2CCNC[C@@H]2F)c1-c1ccn2nc(NC(=O)C3CC3)cc2c1 (racemic) [Example 211, (rac-cis)-N-[5-[3-[(3-fluoro-4-piperidyl)oxy]-5-methyl-isoxazol-4-yl]pyrazolo[1,5-a]pyridin-2-yl]cyclopropanecarboxamide] | 32.5 nM |
| CO[C@H]1CNC[C@H]1Oc1noc(C)c1-c1ccn2nc(Nc3cc(C)nc(C)n3)cc2c1 [Example 94, N-(2,6-dimethylpyrimidin-4-yl)-5-[3-[(3R,4S)-4-methoxypyrrolidin-3-yl]oxy-5-methyl-isoxazol-4-yl]pyrazolo[1,5-a]pyridin-2-amine] | 10.3 nM |
| CCN1CC[C@@H]1COc1cnn(C)c1-c1ccn2nc(Nc3cc(C)c(C)nn3)cc2c1 [Example 18, (R)—N-(5,6-Dimethylpyridazin-3-yl)-5-(4-((1-ethylazetidin-2-yl)methoxy)-1-methyl-1H-pyrazol-5-yl)pyrazolo[1,5-a]pyridin-2-amine] | 1 nM |
| COCCNC(=O)c1cnc(Nc2cc3cc(-c4c(OC[C@H]5CCN5C)cnn4C)ccn3n2)cn1 [Example 115, N-(2-methoxyethyl)-5-[[5-[2-methyl-4-[[(2R)-1-methylazetidin-2-yl]methoxy]pyrazol-3-yl]pyrazolo[1,5-a]pyridin-2-yl]amino]pyrazine-2-carboxamide] | 9 nM |
| Cc1onc(OC[C@H]2NCC2(C)C)c1-c1ccn2nc(NC(=O)C3CC3)cc2c1 [Example 89, N-[5-[3-[[(2S)-3,3-dimethylazetidin-2-yl]methoxy]-5-methyl-isoxazol-4-yl]pyrazolo[1,5-a]pyridin-2-yl]cyclopropanecarboxamide] | 15.9 nM |
| Cc1onc(OC[C@H]2CN(C)CCO2)c1-c1ccn2nc(NC(=O)C3CC3)cc2c1 [Example 79, N-[5-[5-methyl-3-[[(2R)-4-methylmorpholin-2-yl]methoxy]isoxazol-4-yl]pyrazolo[1,5-a]pyridin-2-yl]cyclopropanecarboxamide] | 120 nM |
| Cc1onc(OC[C@@H](c2ccccc2F)N(C)C)c1-c1ccn2nc(NC(=O)C3CC3)cc2c1 [Example 222, N-[5-[3-[(2R)-2-(dimethylamino)-2-(2-fluorophenyl)ethoxy]-5-methyl-isoxazol-4-yl]pyrazolo[1,5-a]pyridin-2-yl]cyclopropanecarboxamide] | 27.5 nM |
| Cc1onc(O[C@@H]2CN[C@H](C)C2)c1-c1ccn2nc(NC(=O)C3CC3)cc2c1 [Example 85, N-[5-[5-methyl-3-[(3S,5R)-5-methylpyrrolidin-3-yl]oxy-isoxazol-4-yl]pyrazolo[1,5-a]pyridin-2-yl]cyclopropanecarboxamide] | 32.1 nM |
| Cc1cncc(Nc2cc3cc(-c4c(CO[C@H]5CN(C)C[C@@H]5C)cnn4C)ccn3n2)n1 [Example 373, (rac-trans)-5-[4-[(1,4-dimethylpyrrolidin-3-yl)oxymethyl]-2-methyl-pyrazol-3-yl]-N-(6-methylpyrazin-2-yl)pyrazolo[1,5-a]pyridin-2-amine] | 7.2 nM |
| Cc1cc(C(=O)NCC(C)(C)O)cc(Nc2cc3cc(-c4c(OC[C@H]5CCN5C)cnn4C)ccn3n2)n1 [Example 111, N-(2-hydroxy-2-methyl-propyl)-2-methyl-6-[[5-[2-methyl-4-[[(2R)-1-methylazetidin-2-yl]methoxy]pyrazol-3-yl]pyrazolo[1,5-a]pyridin-2-yl]amino]pyridine-4-carboxamide] | 1.3 nM |
| COCCN1CC[C@@H]1COc1cnn(C)c1-c1ccn2nc(NC(=O)C3CC3)cc2c1 [Example 243, N-[5-[4-[[(2R)-1-(2-methoxyethyl)azetidin-2-yl]methoxy]-2-methyl-pyrazol-3-yl]pyrazolo[1,5-a]pyridin-2-yl]cyclopropanecarboxamide] | 11.3 nM |
| Cn1ncc(OC[C@@H]2CCNC2)c1-c1ccn2nc(NC(=O)C3CC3)cc2c1 [Example 229, N-[5-[2-methyl-4-[[(3R)-pyrrolidin-3-yl]methoxy]pyrazol-3-yl]pyrazolo[1,5-a]pyridin-2-yl]cyclopropanecarboxamide] | 23.8 nM |
| Cc1onc(OC[C@H]2N(C)CC2(C)C)c1-c1ccn2nc(NC(=O)C3CC3)cc2c1 [Example 321, N-[5-[5-methyl-3-[[(2S)-1,3,3-trimethylazetidin-2-yl]methoxy]isoxazol-4-yl]pyrazolo[1,5-a]pyridin-2-yl]cyclopropanecarboxamide] | 52.6 nM |

The next lines start with the values.

| IC50 | Compound |
| --- | --- |
| 23.5 nM | COC1(COc2noc(C)c2-c2ccn3nc(NC(=O)C4CC4)cc3c2)CCNC1 (racemic) [Example 205, (RS)—N-[5-[3-[(3-methoxypyrrolidin-3-yl)methoxy]-5-methyl-isoxazol-4-yl]pyrazolo[1,5-a]pyridin-2-yl]cyclopropanecarboxamide] |
| 3.6 nM | CN1CC[C@@H]1COc1cnn(C)c1-c1ccn2nc(Nc3cnc(C(C)(C)C)cn3)cc2c1 [Example 381, N-(5-tert-butylpyrazin-2-yl)-5-[2-methyl-4-[[(2R)-1-methylazetidin-2-yl]methoxy]pyrazol-3-yl]pyrazolo[1,5-a]pyridin-2-amine] |
| 5.3 nM | CO[C@H]1CNC[C@H]1Oc1noc(C)c1-c1ccn2nc(Nc3cc(C)c(C)nn3)cc2c1 [Example 95, N-(5,6-dimethylpyridazin-3-yl)-5-[3-[(3R,4S)-4-methoxypyrrolidin-3-yl]oxy-5-methyl-isoxazol-4-yl]pyrazolo[1,5-a]pyridin-2-amine] |
| 0.9 nM | CCN1CC[C@@H]1COc1cnn(C(F)F)c1-c1ccn2nc(Nc3cc(C)c(OC)nn3)cc2c1 [Example 483, 5-[2-(difluoromethyl)-4-[[(2R)-1-ethylazetidin-2-yl]methoxy]pyrazol-3-yl]-N-(6-methoxy-5-methyl-pyridazin-3-yl)pyrazolo[1,5-a]pyridin-2-amine] |
| < 0.847 nM | CCN1CC[C@@H]1COc1cnn(C)c1-c1ccn2nc(Nc3cc(C(F)(F)F)nc(C)n3)cc2c1 [Example 162, 5-[4-[[(2R)-1-ethylazetidin-2-yl]methoxy]-2-methyl-pyrazol-3-yl]-N-[2-methyl-6-(trifluoromethyl)pyrimidin-4-yl]pyrazolo[1,5-a]pyridin-2-amine] |
| 3950 nM | Cc1onc(O[C@H]2CNC[C@@H]2F)c1-c1ccn2nc(NC(=O)C3CC3)cc2c1 [Example 82, N-[5-[3-[(3S,4S)-4-fluoropyrrolidin-3-yl]oxy-5-methyl-isoxazol-4-yl]pyrazolo[1,5-a]pyridin-2-yl]cyclopropanecarboxamide] |
| 8.8 nM | CN1CC[C@@H]1COc1cnn(C)c1-c1ccn2nc(Nc3cnc(C(F)(F)F)cn3)cc2c1 [Example 117, 5-[2-methyl-4-[[(2R)-1-methylazetidin-2-yl]methoxy]pyrazol-3-yl]-N-[5-(trifluoromethyl)pyrazin-2-yl]pyrazolo[1,5-a]pyridin-2-amine] |
| 53.5 nM | Cc1cc(Nc2cc3cc(-c4c(OC[C@@H]5CC6(CCC6)CO5)cnn4C)ccn3n2)nc(C)n1 (single isomer, unassigned) [Example 358, *S—N-(2,6-dimethylpyrimidin-4-yl)-5-[2-methyl-4-(7-oxaspiro[3.4]octan-6-ylmethoxy)pyrazol-3-yl]pyrazolo[1,5-a]pyridin-2-amine] |
| 5.3 nM | Cc1cnc(Nc2cc3cc(-c4c(OC[C@H]5CCN5C)cnn4C)ccn3n2)cn1 [Example 49, 5-[2-methyl-4-[[(2R)-1-methylazetidin-2-yl]methoxy]pyrazol-3-yl]-N-(5-methylpyrazin-2-yl)pyrazolo[1,5-a]pyridin-2-amine] |
| 155 nM | Cc1cc(Nc2cc3cc(-c4c(OC[C@H](O)C5CCC5)cnn4C)ccn3n2)nc(C)n1 (single isomer, unassigned) [Example 444, (*R)-1-cyclobutyl-2-[5-[2-[(2,6-dimethylpyrimidin-4-yl)amino]pyrazolo[1,5-a]pyridin-5-yl]-1-methyl-pyrazol-4-yl]oxy-ethanol] |
| 12.9 nM | Cc1onc(OCC2(C#N)CNC2)c1-c1ccn2nc(NC(=O)C3CC3)cc2c1 [Example 77, N-[5-[3-[(3-cyanoazetidin-3-yl)methoxy]-5-methyl-isoxazol-4-yl]pyrazolo[1,5-a]pyridin-2-yl]cyclopropanecarboxamide] |
| 40.3 nM | Cc1ncc(Nc2cc3cc(-c4c(OC[C@@H]5CCN5C)cnn4C)ccn3n2)nc1C [Example 138, N-(5,6-dimethylpyrazin-2-yl)-5-[2-methyl-4-[[(2S)-1-methylazetidin-2-yl]methoxy]pyrazol-3-yl]pyrazolo[1,5-a]pyridin-2-amine] |
| 96.1 nM | CN1C[C@H](COc2cnn(C)c2-c2ccn3nc(NC(=O)C4CC4)cc3c2)[C@@H](O)C1 [Example 424, N-[5-[4-[[(3R,4R)-4-hydroxy-1-methyl-pyrrolidin-3-yl]methoxy]-2-methyl-pyrazol-3-yl]pyrazolo[1,5-a]pyridin-2-yl]cyclopropanecarboxamide] |
| 29.8 nM | Cc1cc(Nc2cc3cc(-c4c(O[C@H]5CCN(C)C5)cnn4C)ccn3n2)nc(C)n1 [Example 267, N-(2,6-dimethylpyrimidin-4-yl)-5-[2-methyl-4-[(3S)-1-methylpyrrolidin-3-yl]oxy-pyrazol-3-yl]pyrazolo[1,5-a]pyridin-2-amine] |
| 28.7 nM | Cc1onc(OCC2(C(N)=O)CNC2)c1-c1ccn2nc(NC(=O)C3CC3)cc2c1 [Example 198, 3-[[4-[2-(cyclopropanecarbonylamino)pyrazolo[1,5-a]pyridin-5-yl]-5-methyl-isoxazol-3-yl]oxymethyl]azetidine-3-carboxamide] |
| 10.3 nM | CN1CC[C@@H]1COc1cnn(C)c1-c1ccn2nc(Nc3ccc(C(=O)NCC(C)(C)C#N)cn3)cc2c1 [Example 36, N-(2-cyano-2-methyl-propyl)-6-[[5-[2-methyl-4-[[(2R)-1-methylazetidin-2-yl]methoxy]pyrazol-3-yl]pyrazolo[1,5-a]pyridin-2-yl]amino]pyridine-3-carboxamide] |
